≈ marks a conversion by molar mass, not a printed value.
Experiments:
[1] = tested on: H. somni; assay: In-vitro MIC model (CLSI broth micro-dilution)
[2] = tested on: M. haemolytica; assay: In-vitro MIC model (CLSI broth micro-dilution)
[3] = tested on: P. multocida; assay: In-vitro MIC model (CLSI broth micro-dilution)
[4] = tested on: P. multocida; assay: Murine P. multocida intranasal challenge study with lung tissue RNA sequence analysis; type: in vivo, mice; conditions: subcutaneous 18 hours after challenge (5×10^3 CFU/mouse): tulathromycin 16 mg/kg, M9 32 mg/kg, ceftiofur 9 mg/kg; placebo 0%
Protocol: In one murine P. multocida intranasal challenge study, mice were administered tulathromycin (16 mg/kg; T02), M9 (32 mg/kg; T03), or ceftiofur (9 mg/kg; T04) by subcutaneous injection 18 hours after bacterial challenge (5×10^3 CFU/mouse) for lung tissue RNA sequence analysis. Survival at Day 7 was about 80%, 50%, and 90% for T02, T03, and T04, respectively, compared to placebo at 0%. Differential gene expression from total lung tissue RNA sequence analysis indicated at least 226 unique genes were up or down regulated (with significance) for T03. Output from ingenuity pathway analysis of these unique genes predicted major upstream regulators of the involved pathways. Data was analyzed based on the number of genes being modulated in the same direction that were associated with a given upstream regulator. An activation z-score of 2 or greater is considered significant and the direction change is indicated by +(activated) or − (inhibited). The top 5 pathways included: IL-9 signaling, glucocorticoid receptor signaling, prolactin signaling, JAK STAT signaling, and IL-17 signaling. The top 6 upstream regulators (activation z-score) included: lipopolysaccharide (−6.725), TNF (−4.669), IFNG (−5.759), IL-1β (−5.947), STAT1 (−2.787), and poly rl:rC-RNA (−5.289). Even though this study was run in the murine model, the top upstream regulators identified as being modulated by M9 include an almost ubiquitous overlap with the pathways identified in the natural disease study as being key mediators in BRD, and therefore is modulating highly relevant pathways in BRD pathobiology.

[5] = tested on: BRD pathogens, M. haemolytica and P. multocida; assay: MIC screening panel of BRD pathogens (antibacterial / non-antibacterial); conditions: read-out: antibacterial / non-antibacterial (MIC for the BRD pathogens)
[6] = tested on: P. multocida 46572; assay: In vivo mouse lung infection challenge model (murine efficacy); parameters: species or system CD-1 female mice; conditions: 20 mg/kg subcutaneous, P. multocida challenge; harmonized against the comparative vehicle survival rate
Protocol: The challenge organism was P. multocida 46572. Target challenge concentration was 5×10^2 CFU/mouse. Isolated colonies from overnight growth (37° C. with 5% CO2) on trypticase soy agar (TSA II) blood plates were transferred to room temperature Brain Heart Infusion Broth (BHIB). The broth culture was incubated 3.5-4 hours to approximately mid-log phase of growth, as measured by forward light scatter at 600 nm (OD600, 0.200). The culture was centrifuged to collect the bacterial pellet. The pellet was re-suspended in BHIB and adjusted to provide an approximate concentration of 2.7 log^10 colony forming units (CFU) in 0.04 mL at the highest concentration. The challenge inoculum concentration was confirmed by serial dilutions of the inoculum for CFU enumeration. On Day −5, CD-1 female mice were received. Mice were given standard rodent diet and water ad libitum. On Day 0, bacterial inoculum (0.04 mL) was administered to each mouse (n=36) intranasally. Compounds of the invention were dosed at 20 mg/kg (0.1 mL) in a buffered (˜pH 5.4) propylene glycol, monothioglycerol and water solution by subcutaneous injection. Animals were observed from Days 1-10. The study was terminated on Day 10. In addition, some treatment groups were sampled at 6, 24, and 48 hours post bacterial challenge for RNA sequence analysis of lung tissue.
The murine efficacy model (P. multocida challenge) was optimized, and the treatment group size was powered to be able to observe statistically significant improvement of survival to expected ranges for immunomodulatory compounds. The experimental design was a randomized complete block design. Mice were individually identified and treatment groups comingled within a cage, with every treatment group equally represented across cages. Mortality was the primary variable. Mortality data was analyzed using a generalized mixed model with fixed effect of treatment and random effect of block. Survival time was also analyzed using the SAS PHREG (survival analysis) procedure to examine whether there were significant differences between treatment groups and the control group. Numerous compounds of the invention and M9 (positive control) were tested in this model at a dose of 20 mg/kg. Typical percent survival for no treatment control is in the range of 0-20% based on study to study variation in challenge inoculum and rate of infection. […] Mouse survival for M9 was about 90-100%, further supporting its antibacterial properties against the bacterial strain (Table 3). Survival values presented are harmonized against the comparative vehicle survival rate.

[7] = tested on: IL-1β; assay: LPS-stimulated whole bovine blood assay, MSD cytokine detection; type: cell-based; conditions: overstimulation of IL-1β, LPS-stimulated bovine whole blood
[8] = tested on: TNF-α; assay: as above; type: cell-based; conditions: Bos taurus, LPS-stimulated bovine whole blood; read-out: TNF-α (IC50 μM)
[9] = tested on: IL-6; assay: as above; type: cell-based; conditions: Bos taurus, LPS-stimulated bovine whole blood; read-out: IL-6 (IC50 μM)
Excerpt: In order to correlate RNA sequencing data to cytokine changes the whole blood assay was utilized. […] The enhancement result represents an overall stimulation of cytokine levels due to cellular stress or potential toxicity with increasing concentrations of the compound, representing a typical bell shape response curve for immunomodulatory activity.

[10] = H. somni (25) lung isolates at necropsy, natural BRD study
[11] = M. haemolytica (116) lung isolates at necropsy, natural BRD study
[12] = P. multocida (33) lung isolates at necropsy, natural BRD study

SMILES	MIC [5] [µg/mL]	Mouse Murine Percent Survival [6] [%]	IL-1β OS of LPS [7] [µM]	IC50 [8] [µM]	IC50 [9] [µM]	other results
CS(=O)(=O)c1ccc([C@@H](O)[C@@H](CF)NC(=O)C(Cl)Cl)cc1 [florfenicol]						MIC ([1]; Histophilus somni): 0.12 to 2 µg/mL (≈ 0.335 to 5.58 µM)
CCCN1C[C@H](C)[C@@H](O)[C@](C)(O)[C@@H](CC)OC(=O)[C@H](C)[C@@H](O[C@H]2C[C@@](C)(OC)[C@@H](O)[C@H](C)O2)[C@H](C)[C@@H](O[C@@H]2O[C@H](C)C[C@H](N(C)C)[C@H]2O)[C@](C)(O)C[C@H]1C [gamithromycin]						MIC ([1]; H. somni (31 strains)): 0.25 to 8 µg/mL; MIC ([2]; 25 different strains of M. haemolytica): 0.5 to 1 µg/mL; MIC ([3]; 25 different strains of P. multocida): 1 to 2 µg/mL
CCN1CCN(c2cc3c(cc2F)c(=O)c(C(=O)O)cn3C2CC2)CC1 [enrofloxacin]						MIC ([1]; Histophilus somni): 0.06 to 1 µg/mL (≈ 0.167 to 2.78 µM)
CO/N=C(\C(=O)N[C@@H]1C(=O)N2C(C(=O)O)=C(CSC(=O)c3ccco3)CS[C@H]12)c1csc(N)n1 [ceftiofur]						Survival at Day 7 [4]: ~90%
CC[C@H]1OC(=O)[C@H](C)[C@@H](O[C@H]2C[C@@](C)(OC)[C@@](C)(O)[C@H](C)O2)[C@H](C)[C@@H](O[C@@H]2O[C@H](C)C[C@H](N(C)C(=O)N(C)c3ccc(C(F)(F)F)cc3)[C@H]2O)[C@](C)(O)C[C@@H](C)CN[C@H](C)[C@@H](O)[C@]1(C)O [Example B-13, 1-((2S,3R,4S,6R)-2-(((2R,3S,4R,5R,8R,10R,11R,12S,13S,14R)-2-ethyl-3,4,10-trihydroxy-13-(((2R,4R,5S,6S)-5-hydroxy-4-methoxy-4,5,6-trimethyltetrahydro-2H-pyran-2-yl)oxy)-3,5,8,10,12,14-hexamethyl-15-oxo-1-oxa-6-azacyclopentadecan-11-yl)oxy)-3-hydroxy-6-methyltetrahydro-2H-pyran-4-yl)-1,3-dimethyl-3-(4-(trifluoromethyl)phenyl)urea]	> 64	48	16	14	51	
CC[C@H]1OC(=O)[C@H](C)[C@@H](O[C@H]2C[C@@](C)(OC)[C@](O)(CN3CC(N4CCOCC4)C3)[C@H](C)O2)[C@H](C)[C@@H](O[C@@H]2O[C@H](C)C[C@H](N(C)C(=O)N(C)c3ccccc3)[C@H]2O)[C@](C)(O)C[C@@H](C)CN[C@H](C)[C@@H](O)[C@]1(C)O [Example J-4, 1-((2S,3R,4S,6R)-2-(((2R,3S,4R,5R,8R,10R,11R,12S,13S,14R)-2-ethyl-3,4,10-trihydroxy-13-(((2R,4R,5S,6S)-5-hydroxy-4-methoxy-4,6-dimethyl-5-((3-morpholinoazetidin-1-yl)methyl)tetrahydro-2H-pyran-2-yl)oxy)-3,5,8,10,12,14-hexamethyl-15-oxo-1-oxa-6-azacyclopentadecan-11-yl)oxy)-3-hydroxy-6-methyltetrahydro-2H-pyran-4-yl)-1,3-dimethyl-3-phenylurea]	> 64	5	1	7	3	
CCCNC[C@]1(O)[C@H](C)O[C@@H](O[C@H]2[C@H](C)[C@@H](O[C@@H]3O[C@H](C)C[C@H](N(Cc4ccc(OC)cc4)C(=O)N(C)c4ccccc4)[C@H]3O)[C@](C)(O)C[C@@H](C)CN[C@H](C)[C@@H](O)[C@](C)(O)[C@@H](CC)OC(=O)[C@@H]2C)C[C@@]1(C)OC [Example H-60, 1-((2S,3R,4S,6R)-2-(((2R,3S,4R,5R,8R,10R,11R,12S,13S,14R)-2-ethyl-3,4,10-trihydroxy-13-(((2R,4R,5S,6S)-5-hydroxy-4-methoxy-4,6-dimethyl-5-((propylamino)methyl)tetrahydro-2H-pyran-2-yl)oxy)-3,5,8,10,12,14-hexamethyl-15-oxo-1-oxa-6-azacyclopentadecan-11-yl)oxy)-3-hydroxy-6-methyltetrahydro-2H-pyran-4-yl)-1-(4-methoxybenzyl)-3-methyl-3-phenylurea]	> 64	72	3	5	7	
CCCN1C[C@H](C)[C@@H](O)[C@](C)(O)[C@@H](CC)OC(=O)[C@H](C)[C@@H](O[C@H]2C[C@@](C)(OC)[C@@H](O)[C@H](C)O2)[C@H](C)[C@@H](O[C@@H]2O[C@H](C)C[C@H](N(C)C)[C@H]2O)[C@](C)(O)C[C@H]1C [gamithromycin (Zactran)]						MIC50 [1, 10]: 0.25 µg/mL (≈ 0.322 µM); MIC90 [1, 10]: 2 µg/mL (≈ 2.57 µM); MIC Range [1, 10]: 0.12 to 2 µg/mL; MIC50 [2, 11]: 1 µg/mL (≈ 1.29 µM); MIC90 [2, 11]: >64 µg/mL; MIC50 [3, 12]: 1 µg/mL (≈ 1.29 µM); MIC90 [3, 12]: >64 µg/mL
CCCNC[C@]1(O)[C@H](C)O[C@@H](O[C@H]2[C@H](C)[C@@H](O[C@@H]3O[C@H](C)C[C@H](N(C)C(=O)N(C)c4ccc(C(F)(F)F)cc4)[C@H]3O)[C@](C)(O)C[C@@H](C)CN[C@H](C)[C@@H](O)[C@](C)(O)[C@@H](CC)OC(=O)[C@@H]2C)C[C@@]1(C)OC [Example H-13, 1-((2S,3R,4S,6R)-2-(((2R,3S,4R,5R,8R,10R,11R,12S,13S,14R)-2-ethyl-3,4,10-trihydroxy-13-(((2R,4R,5S,6S)-5-hydroxy-4-methoxy-4,6-dimethyl-5-((propylamino)methyl)tetrahydro-2H-pyran-2-yl)oxy)-3,5,8,10,12,14-hexamethyl-15-oxo-1-oxa-6-azacyclopentadecan-11-yl)oxy)-3-hydroxy-6-methyltetrahydro-2H-pyran-4-yl)-1,3-dimethyl-3-(4-(trifluoromethyl)phenyl)urea]	> 64	59	6	12	9	
CCCNC[C@]1(O)[C@H](C)O[C@@H](O[C@H]2[C@H](C)[C@@H](O[C@@H]3O[C@H](C)C[C@H](N(C)C(=O)N(c4ccccc4)c4ccccc4)[C@H]3O)[C@](C)(O)C[C@@H](C)CN[C@H](C)[C@@H](O)[C@](C)(O)[C@@H](CC)OC(=O)[C@@H]2C)C[C@@]1(C)OC [Example H-39, 1-((2S,3R,4S,6R)-2-(((2R,3S,4R,5R,8R,10R,11R,12S,13S,14R)-2-ethyl-3,4,10-trihydroxy-13-(((2R,4R,5S,6S)-5-hydroxy-4-methoxy-4,6-dimethyl-5-((propylamino)methyl)tetrahydro-2H-pyran-2-yl)oxy)-3,5,8,10,12,14-hexamethyl-15-oxo-1-oxa-6-azacyclopentadecan-11-yl)oxy)-3-hydroxy-6-methyltetrahydro-2H-pyran-4-yl)-1-methyl-3,3-diphenylurea]	> 64	44	6	21	19	
